This note sets out measurements from US11072612B2, “NLRP3 modulators” (INNATE TUMOR IMMUNITY, INC., priority 2016, dated 2021).

Assay type in all cases: cell-based
One experiment has as its target T1, hNLRP3 (Homo sapiens, UniProt Q96P20).
T1 construct: THP-1 cells were purchased from the American Type Culture Collection; host or cells: THP-1 cells, PMA-differentiated
Nature of the experiment: hNLRP3 agonist assay: IL-1β production in PMA-differentiated THP-1 cells (ELISA). To be noted: Table 2, 4 hours, IL-1β by ELISA. How it is done: THP-1 cells were purchased from the American Type Culture Collection and sub-cultured according to instructions from the supplier. Prior to experiments, cells were cultured in RPMI 1640 containing 10% heat inactivated FBS, penicillin (100 units/ml) and streptomycin (100 μg/ml), and maintained in log phase prior to experimental setup. Prior to the experiment THP-1 were treated with PMA (Phorbol 12-myristate 13-acetate) (10 μg/ml) for 24 hours. The day of the experiment the media was removed and attaching cells were treated with trypsin for 2 minutes, cells were then collected, washed with PBS (phosphate buffer saline), spin down, resuspended in 2% heat inactivated FBS with RPMI at a concentration of 1×10^6 cells/ml, and 100 μl was plated in a 96 well plate. Cells were incubated with compounds for 4 hours. Cell free supernatant was collected and the production of IL-1β was evaluated by ELISA. Compounds were dissolved in dimethyl sulfoxide (DMSO) and added to the culture medium to achieve desired concentration (e.g. 100, 30, 10, 3, 1, 0.3 or 0.1 μM). A vehicle only control was run concurrently with each experiment. Final DMSO concentration was 1%.

In another experiment the target is T2, TLR8 (Homo sapiens, UniProt Q9NR97).
T2 sequence (Q9NR97 27-1041): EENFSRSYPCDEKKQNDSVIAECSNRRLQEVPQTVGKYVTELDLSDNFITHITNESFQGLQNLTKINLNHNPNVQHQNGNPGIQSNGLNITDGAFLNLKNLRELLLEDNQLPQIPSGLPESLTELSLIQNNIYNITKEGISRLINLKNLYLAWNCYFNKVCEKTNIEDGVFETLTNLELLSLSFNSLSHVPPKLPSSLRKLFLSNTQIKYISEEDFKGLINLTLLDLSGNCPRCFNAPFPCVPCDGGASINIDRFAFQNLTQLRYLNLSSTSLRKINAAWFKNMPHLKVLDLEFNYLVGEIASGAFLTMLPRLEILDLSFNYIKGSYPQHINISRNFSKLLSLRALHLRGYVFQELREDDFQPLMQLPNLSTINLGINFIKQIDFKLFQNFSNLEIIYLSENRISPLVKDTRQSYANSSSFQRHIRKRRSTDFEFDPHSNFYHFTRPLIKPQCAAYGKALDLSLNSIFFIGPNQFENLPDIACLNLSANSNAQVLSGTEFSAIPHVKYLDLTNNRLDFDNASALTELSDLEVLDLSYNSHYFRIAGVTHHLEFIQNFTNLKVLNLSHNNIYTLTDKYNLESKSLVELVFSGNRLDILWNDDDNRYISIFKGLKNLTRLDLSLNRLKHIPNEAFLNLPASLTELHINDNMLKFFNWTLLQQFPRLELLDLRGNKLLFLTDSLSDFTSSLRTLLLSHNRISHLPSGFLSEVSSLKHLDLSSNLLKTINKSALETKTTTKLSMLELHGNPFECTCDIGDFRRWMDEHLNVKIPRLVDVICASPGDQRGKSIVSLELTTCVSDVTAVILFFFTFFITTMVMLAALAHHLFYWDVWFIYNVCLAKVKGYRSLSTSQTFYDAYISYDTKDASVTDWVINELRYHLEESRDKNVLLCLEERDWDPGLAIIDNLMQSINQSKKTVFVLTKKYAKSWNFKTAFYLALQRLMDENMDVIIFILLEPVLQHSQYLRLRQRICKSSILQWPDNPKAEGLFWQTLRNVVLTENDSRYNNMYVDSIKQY
As to the kind of experiment: TLR8 EC50 assay. To be noted: Table 2.

A further experiment concerns the target T3, TLR7 (Homo sapiens, UniProt Q9NYK1).
T3 sequence (Q9NYK1 27-1049): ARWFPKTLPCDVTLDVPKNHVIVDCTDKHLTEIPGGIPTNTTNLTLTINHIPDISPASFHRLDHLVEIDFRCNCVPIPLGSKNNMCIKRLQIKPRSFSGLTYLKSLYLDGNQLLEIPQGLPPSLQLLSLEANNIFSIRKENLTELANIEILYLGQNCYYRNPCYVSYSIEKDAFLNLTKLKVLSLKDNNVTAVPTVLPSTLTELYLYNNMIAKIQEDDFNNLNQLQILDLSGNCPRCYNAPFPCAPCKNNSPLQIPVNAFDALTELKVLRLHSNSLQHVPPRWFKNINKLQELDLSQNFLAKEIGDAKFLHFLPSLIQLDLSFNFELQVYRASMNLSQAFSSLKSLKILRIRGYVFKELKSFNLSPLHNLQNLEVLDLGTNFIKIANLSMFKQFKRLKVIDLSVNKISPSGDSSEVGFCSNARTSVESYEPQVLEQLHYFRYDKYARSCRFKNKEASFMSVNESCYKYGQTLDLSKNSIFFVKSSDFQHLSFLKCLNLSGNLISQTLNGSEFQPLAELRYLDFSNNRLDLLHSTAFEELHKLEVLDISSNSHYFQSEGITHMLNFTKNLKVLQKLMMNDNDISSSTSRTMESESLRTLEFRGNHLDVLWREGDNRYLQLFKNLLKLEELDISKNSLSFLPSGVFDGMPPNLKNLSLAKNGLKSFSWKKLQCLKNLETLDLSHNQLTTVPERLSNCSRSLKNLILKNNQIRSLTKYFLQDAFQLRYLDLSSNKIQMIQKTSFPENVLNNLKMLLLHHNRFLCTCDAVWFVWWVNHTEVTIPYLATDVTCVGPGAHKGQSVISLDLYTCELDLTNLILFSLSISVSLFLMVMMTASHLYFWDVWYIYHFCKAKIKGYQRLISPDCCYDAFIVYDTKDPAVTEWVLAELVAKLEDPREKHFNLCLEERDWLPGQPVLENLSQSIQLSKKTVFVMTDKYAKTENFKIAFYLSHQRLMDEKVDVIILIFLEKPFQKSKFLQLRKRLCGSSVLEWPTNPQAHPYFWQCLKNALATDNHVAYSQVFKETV
As to the kind of experiment: TLR7 EC50 assay. To be noted: Table 2.

T1 sequence (Q96P20 whole entry): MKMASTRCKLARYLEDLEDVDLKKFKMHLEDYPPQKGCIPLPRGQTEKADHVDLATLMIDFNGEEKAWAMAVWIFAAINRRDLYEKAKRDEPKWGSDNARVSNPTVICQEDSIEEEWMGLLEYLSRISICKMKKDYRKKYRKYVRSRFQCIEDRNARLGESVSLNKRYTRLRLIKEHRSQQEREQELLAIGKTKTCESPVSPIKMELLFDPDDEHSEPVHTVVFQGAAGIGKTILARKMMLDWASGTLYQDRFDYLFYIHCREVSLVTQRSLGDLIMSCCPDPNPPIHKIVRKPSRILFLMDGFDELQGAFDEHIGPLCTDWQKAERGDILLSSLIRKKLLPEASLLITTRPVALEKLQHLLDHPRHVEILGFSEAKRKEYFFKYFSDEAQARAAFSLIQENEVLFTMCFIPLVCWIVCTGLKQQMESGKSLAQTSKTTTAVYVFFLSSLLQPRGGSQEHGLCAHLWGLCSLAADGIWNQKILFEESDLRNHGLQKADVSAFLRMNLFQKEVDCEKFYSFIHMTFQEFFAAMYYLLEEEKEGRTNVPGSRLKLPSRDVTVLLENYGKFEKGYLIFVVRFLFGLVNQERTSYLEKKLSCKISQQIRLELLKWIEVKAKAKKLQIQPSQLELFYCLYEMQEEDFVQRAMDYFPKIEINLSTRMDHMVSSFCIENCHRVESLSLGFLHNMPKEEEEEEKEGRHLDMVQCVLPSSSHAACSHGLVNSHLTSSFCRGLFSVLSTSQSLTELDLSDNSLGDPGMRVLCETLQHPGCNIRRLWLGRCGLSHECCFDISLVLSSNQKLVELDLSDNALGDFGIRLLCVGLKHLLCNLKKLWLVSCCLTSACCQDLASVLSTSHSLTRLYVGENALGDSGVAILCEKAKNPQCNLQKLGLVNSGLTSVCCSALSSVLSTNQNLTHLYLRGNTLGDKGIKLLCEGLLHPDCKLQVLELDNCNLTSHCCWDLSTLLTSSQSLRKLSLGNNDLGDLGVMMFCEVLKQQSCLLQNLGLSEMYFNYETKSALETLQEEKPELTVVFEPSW

Consider `CCc1ccc2c(c1)nc(N)c1nc(CCCO)[nH]c12` [Compound 162, 3-(4-amino-7-ethyl-1H-imidazo[4,5-c]quinolin-2-yl)propan-1-ol], for which the values for the EC50 on hNLRP3, on TLR8 and on TLR7 were 1 to 20 µM, 20 to 100 µM and 20 to 100 µM, respectively.
In the case of `Nc1nc2ccccc2c2[nH]c(C3COC3)nc12` [Compound 129], the values for the EC50 at hNLRP3, at TLR8 and on TLR7 were 20 to 100 µM, > 100 µM and > 100 µM, respectively.
On to `Nc1nc2cc(N3CCOCC3)ccc2c2[nH]c(CCCO)nc12` [Compound 168, 3-(4-amino-7-morpholin-4-yl-1H-imidazo[4,5-c]quinolin-2-yl)propan-1-ol], for which the EC50 on hNLRP3, on TLR8 and on TLR7 was > 100 µM in each case.
Consider `Nc1nc2cc(-c3cccc(=O)[nH]3)ccc2c2[nH]c(CCCO)nc12` [Compound 239], for which the EC50 – broadly, the concentration that produces a half-maximal response – on hNLRP3 is 1 to 20 µM; on TLR8 it was > 100 µM; on TLR7, > 100 µM.
Regarding `Nc1ccc(-c2ccc3c(c2)nc(N)c2nc(CCCO)[nH]c23)cn1` [Compound 170, 3-[4-amino-7-(6-aminopyridin-3-yl)-1H-imidazo[4,5-c]quinolin-2-yl]propan-1-ol], the half-maximal effective concentration (EC50) on hNLRP3, on TLR8 and on TLR7 was > 100 µM each time.
`Nc1nc2cc(-c3ccc[nH]c3=O)ccc2c2[nH]c(CCCO)nc12` [Compound 238]: the values for the EC50 at hNLRP3, on TLR8 and at TLR7 were 1 to 20 µM, > 100 µM and > 100 µM, respectively.
`Nc1nc2cc(-c3cccc(Cl)c3)ccc2c2[nH]c(CCCO)nc12` [Compound 204, 3-[4-amino-7-(3-chlorophenyl)-1H-imidazo[4,5-c]quinolin-2-yl]propan-1-ol]: the EC50 on hNLRP3, at TLR8 and at TLR7 was > 100 µM each time.
`CCN(C(=O)OC(C)(C)C)C(C)(C)c1nc2c(N)nc3cc(-c4cc[nH]n4)ccc3c2n1Cc1ccc(OC)cc1` [Compound 252]: the figures for the EC50 on hNLRP3, on TLR8 and on TLR7 were 1 to 20 µM, > 100 µM and > 100 µM, respectively.
As to `Nc1nc2cc(N3CCNC3=O)ccc2c2[nH]c(CCCO)nc12` [Compound 115], the EC50 on hNLRP3 is 1 to 20 µM; on TLR8, > 100 µM; on TLR7 it was > 100 µM.
As to `COc1ccc(-c2ccc3c(c2)nc(N)c2nc(CCCO)[nH]c23)cc1` [Compound 211, 3-[4-amino-7-(4-methoxyphenyl)-1H-imidazo[4,5-c]quinolin-2-yl]propan-1-ol], the EC50 at hNLRP3, at TLR8 and at TLR7 was > 100 µM in each case.
`Cc1ccc2c(c1)nc(N)c1nc(CCCO)[nH]c12` [Compound 111]: the figures for the concentration for a half-maximal effect (EC50) at hNLRP3, at TLR8 and at TLR7 were 1 to 20 µM, 20 to 100 µM and > 100 µM, respectively.
With `CC(C)c1ccc2c(c1)nc(N)c1nc(CCCO)[nH]c12` [Compound 159, 3-(4-amino-7-propan-2-yl-1H-imidazo[4,5-c]quinolin-2-yl)propan-1-ol], the EC50 is 1 to 20 µM at hNLRP3, > 100 µM at TLR8 and 20 to 100 µM on TLR7.
As to `CCNC(C)c1nc2c(N)nc3cc(-c4cc[nH]n4)ccc3c2[nH]1` (stereo not drawn) [Compound 240], the EC50 on hNLRP3 was 1 to 20 µM; at TLR8 it was > 100 µM; at TLR7, > 100 µM.
As to `Nc1nc2cc(-c3cncc4ccccc34)ccc2c2[nH]c(CCCO)nc12` [Compound 192, 3-(4-amino-7-isoquinolin-4-yl-1H-imidazo[4,5-c]quinolin-2-yl)propan-1-ol], the EC50 on hNLRP3, at TLR8 and at TLR7 was > 100 µM throughout.
For the compound `CC(C)(C)OC(=O)N1CCC(c2nc3c(N)nc4cc(-c5cccnc5)ccc4c3[nH]2)CC1` [Compound 221], the 50% effective concentration (EC50) at hNLRP3 was 1 to 20 µM; on TLR8, > 100 µM; at TLR7, > 100 µM.
On to `Nc1nc2cc(-c3cnoc3)ccc2c2[nH]c(CCCO)nc12` [Compound 195, 3-[4-amino-7-(1,2-oxazol-4-yl)-1H-imidazo[4,5-c]quinolin-2-yl]propan-1-ol], for which the EC50 at hNLRP3, at TLR8 and on TLR7 was > 100 µM each time.
Take `Nc1nc2cc(-c3cnc4ccccc4c3)ccc2c2[nH]c(CCCO)nc12` [Compound 191, 3-(4-amino-7-quinolin-3-yl-1H-imidazo[4,5-c]quinolin-2-yl)propan-1-ol]: the EC50 at hNLRP3, on TLR8 and on TLR7 was > 100 µM throughout.
Consider `CSc1ccc(-c2ccc3c(c2)nc(N)c2nc(CCCO)[nH]c23)cn1` [Compound 173, 3-[4-amino-7-(6-methylsulfanylpyridin-3-yl)-1H-imidazo[4,5-c]quinolin-2-yl]propan-1-ol], for which the EC50 at hNLRP3, at TLR8 and on TLR7 was > 100 µM in each case.
In the case of `Nc1nc2cc(-c3cccnc3Cl)ccc2c2[nH]c(CCCO)nc12` [Compound 215, 3-[4-amino-7-(2-chloropyridin-3-yl)-1H-imidazo[4,5-c]quinolin-2-yl]propan-1-ol], the EC50 at hNLRP3 is > 100 µM; on TLR8, 20 to 100 µM; on TLR7 it was 20 to 100 µM.
Consider `Cc1ncccc1-c1ccc2c(c1)nc(N)c1nc(CCCO)[nH]c12` [Compound 214, 3-[4-amino-7-(2-methylpyridin-3-yl)-1H-imidazo[4,5-c]quinolin-2-yl]propan-1-ol], for which the EC50 at hNLRP3 was > 100 µM; at TLR8 it was > 100 µM; on TLR7, 20 to 100 µM.
With `Nc1nc2cc(C3CCCC3)ccc2c2[nH]c(CCCO)nc12` [Compound 161, 3-(4-amino-7-cyclopentyl-1H-imidazo[4,5-c]quinolin-2-yl)propan-1-ol], the EC50 is ≤ 1 µM on hNLRP3, > 100 µM at TLR8 and > 100 µM at TLR7.
In the case of `N#Cc1ccccc1-c1ccc2c(c1)nc(N)c1nc(CCCO)[nH]c12` [Compound 202, 2-[4-amino-2-(3-hydroxypropyl)-1H-imidazo[4,5-c]quinolin-7-yl]benzonitrile], the EC50 on hNLRP3, on TLR8 and on TLR7 was > 100 µM each time.
